From US20110244078A1 (priority 2010, published 2011)

Assay: Moisture sensitivity: degradation of the isothiocyanate suspended in aqueous phosphate buffer
Assay type: physicochemical
Details: WMEO (about 25% 4-HBITC) suspended in aqueous phosphate buffer, pH about 3.6, about 20-23° C.
Source text: As used herein, the term “moisture sensitive” means that the isothiocyanate compound degrades in the presence of water. This degradation proceeds via a hydrolysis reaction, thereby leading to a reduction in level of the active isothiocyanate antimicrobial agent with time of storage in the presence of water. The method for determining moisture sensitivity is set forth in the Test Method section below. […]
Moisture sensitive isothiocyanate compounds are identified by suspending the isothiocyanate containing material in an aqueous phosphate buffer (pH of about 3.6) at room temperature. […] The extraction procedure is repeated after 24 hours and the level of residual isothiocyanate compound is measured by supercritical fluid chromatography. […]
A white mustard essential oil is generated by adding water to ground white mustard seeds and then extracting the essential oil with supercritical carbon dioxide according to the known processes described in the art. […] The essential oil is suspended in an aqueous phosphate buffer (pH of about 3.6) at room temperature (about 20-23° C.) and the level of 4-hydroxybenzyl isothiocyanate measured at time zero and after about 24 hours of storage as described in the preceding section. […]

Oc1ccc(CN=C=S)cc1 [4-hydroxybenzyl isothiocyanate]
percent reduction in level of 4-hydroxybenzyl isothiocyanate after 24 hours: about 72%
